Measurements published in ChEMBL document CHEMBL1141856, “Iridoid glycosides of Leonurus persicus” (J Nat Prod, 1999).
Calls of active or inactive are those of the source. No cut-off for these calls is given here.

Test system: Staphylococcus epidermidis
Experiment: Antimicrobial activity against Staphylococcus epidermidis at 50 ug/spot by agar overlay method
Format: functional, organism-based

COc1cc(/C=C/C(=O)O[C@H]2[C@H](O[C@@H]3O[C@@H](C)[C@H](O)[C@@H](O)[C@H]3O)[C@@H](O)[C@H](OCCc3ccc(O)c(O)c3)O[C@@H]2CO)ccc1O
Activity: Active
